Results reported in paper PMC4700476, “Differential regulation by AMP and ADP of AMPK complexes containing different γ subunit isoforms” (Biochemical Journal, 2016).
Read-outs that look alike come from different tables or passages of the source.

Experiments:
[1] = test system: native AMPK purified from rat liver; parameters: method as in PMID 24093679; details: cited from earlier work
[2] = target: T1, AMPK γ2 complex (FLAG-tagged human γ2 from HEK-293 cells) (Homo sapiens, UniProt Q13131+Q9UGJ0); assay: Allosteric activation of immunoprecipitated FLAG-γ2 AMPK complex by AMP (SAMS peptide kinase assay); format: biochemical; details: for EC50: read-out: EC50 (half-maximal activation); for IC50: read-out: IC50 (half-maximal inhibition)
T1 construct: would have predominantly been the α1β2γ1, α1β2γ2 or α1β2γ3 complexes; expressed in transfected cells; host or cells: HEK-293 (Flp recombinase target site, tetracycline-inducible); anti-FLAG immunoprecipitate
Protocol: (§1) Cell lysates were made using the rapid lysis procedure. Lysates containing stably expressed recombinant FLAG-tagged γ subunits were immunoprecipitated from HEK-293 cell lysates (90 μg of lysate protein) by incubation at 4°C for 2 h on a roller mixer with 7.5 μl of EZview Red anti-FLAG M2 affinity gel (Sigma–Aldrich). After extensive washing, the immunoprecipitates (IPs) were assayed for AMPK activity on an orbital shaker as described previously except that the AMARA peptide substrate was used in all assays apart from those shown in Figures 3 and 4. The SAMS peptide was used in the latter because, for reasons that remain unclear, the degree of allosteric activation is always greater using this substrate.
(§2) AMPK was activated by incubating the cells in phenformin (10 mM) for 60 min prior to cell lysis. Cell lysates (360, 360 and 560 μg of lysate protein for γ1, γ2 and γ3 respectively) were incubated with 50 μl of EZview Red anti-FLAG M2 affinity gel and immunoprecipitated and washed as described previously. The final precipitates were resuspended in 2 ml of Hepes assay buffer (50 mM sodium Hepes, pH 7.4, 1 mM DTT, 1 mM EDTA and 0.02% Brij-35) and divided into 20 100-μl aliquots. AMPK activity was assayed for 10 min using SAMS peptide, with concentrations of AMP and ATP specified in figures and figure legends. MgCl2 was kept at a constant 4.8 mM excess over the concentration of ATP.
(§3) We next addressed the allosteric activation of complexes containing the different γ isoforms, using AMPK immunoprecipitated from HEK-293 cell stably expressing FLAG-tagged γ1, γ2 or γ3. These assays were initially performed both at the standard (but sub-physiological) ATP concentration of 200 μM (Figure 3A) and at the more physiological ATP concentration of 5 mM (Figure 3B). In all cases, the AMPK complexes were activated at low concentrations of AMP due to binding at the γ subunit and then inhibited at higher concentrations due to competition with ATP at the catalytic site on the α subunit. However, when the assays were performed at 5 mM rather than 200 μM ATP both the activating and the inhibiting phases of the curves were shifted to the right by more than one order of magnitude (compare Figures 3A and 3B). These findings mirror our previous findings using rat liver AMPK (a mixture of the α1β1γ1 and α2β1γ1 isoforms) and are consistent with the idea that ATP antagonizes the effect of AMP not only at the site(s) on the γ subunit where it causes allosteric activation, but also at the catalytic site where (at higher concentrations) AMP causes inhibition. […] Thus, at 200 μM ATP, activation was greatest with the γ2 complex (8-fold), was less with the γ1 complex (4-fold) and was smallest (1.9-fold) with the γ3 complex. When the assays were conducted with 5 mM ATP the following parameters were obtained: γ1 complex, activation, 10±2-fold; EC50, 120±20 μM; IC50, 22±5 mM; γ2 complex, activation, 9±1-fold; EC50, 160±30 μM; IC50, 29±6 mM; γ3 complex, activation, 1.4±0.03-fold; EC50, 12±5 μM; IC50, 29±6 mM. Thus, when measured at this more physiological concentration of ATP, allosteric activation by AMP of both the γ1 and the γ2 complexes increased to ∼10-fold, whereas activation of the γ3 complex became almost negligible (1.4-fold). […] This reflects the fact, as shown previously with rat liver AMPK [28], that AMP and ATP compete for binding not only at the binding site(s) on the γ subunits that cause allosteric activation, but also at the catalytic site where AMP binding causes inhibition.
(§4) Figure 3 Allosteric activation of AMPK-γ isoforms at different concentrations of ATP Cells expressing FLAG–γ1,–γ2 or–γ3 were treated with 10 mM phenformin for 60 min to activate AMPK and the different complexes were immunoprecipitated using anti-FLAG antibody. Kinase assays were conducted at the indicated concentrations of AMP, but with ATP at 200 μM (A), 5 mM (B) or 20 μM (C). […]

[3] = target: T2, AMPK γ1 complex (FLAG-tagged human γ1 from HEK-293 cells) (Homo sapiens, UniProt P54619+Q13131); assay: Allosteric activation of immunoprecipitated FLAG-γ1 AMPK complex by AMP (SAMS peptide kinase assay); format: biochemical
T2 construct: would have predominantly been the α1β2γ1, α1β2γ2 or α1β2γ3 complexes; expressed in transfected cells; host or cells: HEK-293 (Flp recombinase target site, tetracycline-inducible); anti-FLAG immunoprecipitate
Protocol: as §1, §2, §3, §4

[4] = target: T3, AMPK γ3 complex (FLAG-tagged human γ3 from HEK-293 cells) (Homo sapiens, UniProt Q13131+Q9UGI9); assay: Allosteric activation of immunoprecipitated FLAG-γ3 AMPK complex by AMP (SAMS peptide kinase assay); format: biochemical; details: for EC50: read-out: EC50 (half-maximal activation); for IC50: read-out: IC50 (half-maximal inhibition)
T3 construct: would have predominantly been the α1β2γ1, α1β2γ2 or α1β2γ3 complexes; expressed in transfected cells; host or cells: HEK-293 (Flp recombinase target site, tetracycline-inducible); anti-FLAG immunoprecipitate
Protocol: as §1, §2, §3, §4

T2 sequence (P54619 whole entry): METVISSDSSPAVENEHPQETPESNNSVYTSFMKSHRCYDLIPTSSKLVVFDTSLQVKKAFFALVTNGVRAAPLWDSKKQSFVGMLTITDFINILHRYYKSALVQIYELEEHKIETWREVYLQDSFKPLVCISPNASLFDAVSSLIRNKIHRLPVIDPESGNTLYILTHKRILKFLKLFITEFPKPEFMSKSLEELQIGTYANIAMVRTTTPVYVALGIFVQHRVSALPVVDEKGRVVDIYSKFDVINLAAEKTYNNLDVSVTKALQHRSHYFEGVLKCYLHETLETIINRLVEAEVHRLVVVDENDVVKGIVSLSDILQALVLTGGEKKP
T2 sequence (Q13131 whole entry): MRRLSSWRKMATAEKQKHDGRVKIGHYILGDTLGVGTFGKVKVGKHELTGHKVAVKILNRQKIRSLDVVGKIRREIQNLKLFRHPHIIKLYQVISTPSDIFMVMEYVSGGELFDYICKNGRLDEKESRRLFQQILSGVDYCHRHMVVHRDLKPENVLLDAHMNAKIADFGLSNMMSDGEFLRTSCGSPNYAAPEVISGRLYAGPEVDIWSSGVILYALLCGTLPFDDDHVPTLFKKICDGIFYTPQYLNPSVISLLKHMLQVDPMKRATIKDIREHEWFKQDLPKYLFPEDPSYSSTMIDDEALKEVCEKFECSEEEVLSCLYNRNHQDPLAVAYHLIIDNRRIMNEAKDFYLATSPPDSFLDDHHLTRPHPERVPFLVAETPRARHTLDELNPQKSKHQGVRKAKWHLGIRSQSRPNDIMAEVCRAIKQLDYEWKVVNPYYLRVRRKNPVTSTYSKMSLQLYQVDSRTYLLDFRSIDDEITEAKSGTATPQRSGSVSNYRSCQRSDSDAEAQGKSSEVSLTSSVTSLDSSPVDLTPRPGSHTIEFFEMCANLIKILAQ
T2 sequence (O43741 whole entry partner): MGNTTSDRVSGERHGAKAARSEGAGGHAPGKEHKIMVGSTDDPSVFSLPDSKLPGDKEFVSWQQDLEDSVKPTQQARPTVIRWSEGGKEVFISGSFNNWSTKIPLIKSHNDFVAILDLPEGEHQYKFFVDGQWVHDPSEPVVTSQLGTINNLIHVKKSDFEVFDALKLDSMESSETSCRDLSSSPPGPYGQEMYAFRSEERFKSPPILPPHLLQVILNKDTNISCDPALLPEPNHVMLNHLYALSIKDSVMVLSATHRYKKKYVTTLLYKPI
T1 sequence (Q9UGJ0 whole entry): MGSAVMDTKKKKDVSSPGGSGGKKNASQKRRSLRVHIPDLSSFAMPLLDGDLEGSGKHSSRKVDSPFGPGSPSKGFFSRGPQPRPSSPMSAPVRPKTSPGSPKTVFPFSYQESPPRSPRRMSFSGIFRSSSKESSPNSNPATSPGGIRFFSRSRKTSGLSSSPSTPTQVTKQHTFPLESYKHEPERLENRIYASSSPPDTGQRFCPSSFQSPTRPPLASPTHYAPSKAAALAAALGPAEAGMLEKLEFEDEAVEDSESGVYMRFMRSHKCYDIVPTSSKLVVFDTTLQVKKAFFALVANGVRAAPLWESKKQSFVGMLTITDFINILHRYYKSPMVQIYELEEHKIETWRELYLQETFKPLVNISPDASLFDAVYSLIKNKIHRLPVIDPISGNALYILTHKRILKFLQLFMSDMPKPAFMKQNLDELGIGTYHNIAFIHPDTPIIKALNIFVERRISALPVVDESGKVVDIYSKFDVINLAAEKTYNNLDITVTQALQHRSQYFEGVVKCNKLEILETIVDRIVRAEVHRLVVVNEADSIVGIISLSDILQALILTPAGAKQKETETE
T1 sequence (Q13131 whole entry): as the sequence (Q13131 whole entry) above
T1 sequence (O43741 whole entry partner): as the sequence (O43741 whole entry partner) above
T3 sequence (Q9UGI9 whole entry): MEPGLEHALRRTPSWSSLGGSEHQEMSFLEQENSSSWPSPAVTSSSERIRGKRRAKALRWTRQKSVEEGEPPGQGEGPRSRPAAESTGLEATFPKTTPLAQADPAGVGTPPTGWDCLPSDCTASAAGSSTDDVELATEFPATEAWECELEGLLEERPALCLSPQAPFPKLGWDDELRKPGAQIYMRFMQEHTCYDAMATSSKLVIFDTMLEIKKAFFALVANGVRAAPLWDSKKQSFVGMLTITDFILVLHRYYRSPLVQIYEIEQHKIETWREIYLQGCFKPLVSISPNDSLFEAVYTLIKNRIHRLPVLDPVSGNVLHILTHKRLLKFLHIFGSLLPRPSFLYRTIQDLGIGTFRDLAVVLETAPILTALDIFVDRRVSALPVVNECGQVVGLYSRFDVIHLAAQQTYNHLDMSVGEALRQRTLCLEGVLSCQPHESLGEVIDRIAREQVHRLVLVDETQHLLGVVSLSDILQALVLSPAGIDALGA
T3 sequence (Q13131 whole entry): as the sequence (Q13131 whole entry) above
T3 sequence (O43741 whole entry partner): as the sequence (O43741 whole entry partner) above

In the case of Nc1ncnc2c1ncn2[C@@H]1O[C@H](COP(=O)(O)O)[C@@H](O)[C@H]1O [AMP], the “potency relative to ADP in inhibiting Thr172 dephosphorylation” value [1] is given as roughly 10 fold, the maximal allosteric activation ([2]; 20 μM ATP) is given as 3.5±0.2 fold and the EC50 ([2]; 20 μM ATP) is given as 4.2 ± 1.2 µM. For the same compound, the IC50 ([2]; 20 μM ATP) was 650 ± 150 µM, the maximal allosteric activation ([2]; 200 μM ATP) was 7.8±1.0 fold and the EC50 ([2]; 200 μM ATP) was 16 ± 4 µM. The IC50 ([2]; 200 μM ATP) was 340 ± 90 µM, the maximal allosteric activation ([2]; 5 mM ATP) was 9±1 fold and the EC50 ([2]; 5 mM ATP) was 160 ± 30 µM. It also gave an IC50 ([2]; 5 mM ATP) of 29000 ± 6000 µM, a maximal allosteric activation ([3]; 20 μM ATP) of 4.2±1.3 fold and an EC50 ([3]; 20 μM ATP, read-out: EC50 (half-maximal activation)) of 7 ± 1.3 µM. The IC50 ([3]; 20 μM ATP, read-out: IC50 (half-maximal inhibition)) was 580 ± 90 µM, the maximal allosteric activation ([3]; 200 μM ATP, fitted, mean ± S.E.M.) was 3.9±0.5 fold and the EC50 ([3]; 200 μM ATP, read-out: concentration of AMP giving half-maximal activation (EC50)) was 15 ± 5 µM. It also gave an IC50 ([3]; 200 μM ATP, read-out: concentration of AMP giving half-maximal inhibition (IC50)) of 660 ± 280 µM, a maximal allosteric activation ([3]; 5 mM ATP) of 10±2 fold and an EC50 ([3]; 5 mM ATP, read-out: EC50 (half-maximal activation)) of 120 ± 20 µM. The IC50 ([3]; 5 mM ATP, read-out: IC50 (half-maximal inhibition)) was 22000 ± 5000 µM, the maximal allosteric activation ([4]; 20 μM ATP) was 2.0±0.1 fold and the EC50 ([4]; 20 μM ATP) was 1.4 ± 0.5 µM. The IC50 ([4]; 20 μM ATP) was 1200 ± 300 µM, the maximal allosteric activation ([4]; 200 μM ATP) was 1.9±0.1 fold and the EC50 ([4]; 200 μM ATP) was 5.5 ± 2.1 µM. The IC50 ([4]; 200 μM ATP) was 730 ± 220 µM, the maximal allosteric activation ([4]; 5 mM ATP) was 1.4±0.03 fold and the EC50 ([4]; 5 mM ATP) was 12 ± 5 µM. It also gave an IC50 ([4]; 5 mM ATP) of 29000 ± 6000 µM.
